{"source": "paper PMC10675732", "about": "(Viruses, 2023)", "key": {"[1]": {"system": "Parent virus (A/PR/8/34 (H1N1))", "assay": "microbe, parasite or virus in culture", "format": "cell-based", "conditions": "Influenza A virus, plaque reduction assay"}, "[2]": {"system": "A/PR/8/34 (H1N1)", "format": "in vivo, influenza A virus"}, "[3]": {"system": "B/Hong Kong/5/72", "format": "in vivo, influenza B virus"}, "[4]": {"system": "A/PR/8/34 (H1N1)", "conditions": "viral yield; cited from earlier work"}, "[5]": {"system": "B/Hong Kong/5/72", "conditions": "viral yield; cited from earlier work"}, "[6]": {"system": "influenza A viruses", "conditions": "range over influenza A viruses, previous study; cited from earlier work"}, "[7]": {"system": "influenza B viruses", "conditions": "range over influenza B viruses, previous study; cited from earlier work"}, "[8]": {"system": "seasonal influenza A viruses", "conditions": "cited from earlier work"}, "[9]": {"assay": "in vivo", "conditions": "mouse, sc"}, "[10]": {"conditions": "cited from earlier work"}, "[11]": {"conditions": "human, in vivo, po; cited from earlier work"}, "[12]": {"conditions": "mouse, in vivo, po; cited from earlier work"}}, "note": "Several values for one entry are separate records, joined by “and”; a condition that tells them apart may be missing. Equal values may be shown once. Read-outs that look alike come from different tables or passages of the source. Marks after values point to notes of the source that are not given here."}
{"smiles": "NC(=O)c1nc(F)c[nH]c1=O", "note": "[Favipiravir]", "values": [{"measurement": "EC50", "setting": "[1]", "result": "22300 ± 1010", "unit": "nM"}]}
{"smiles": "O=C1c2c(O)c(=O)ccn2N([C@@H]2c3ccccc3SCc3c2ccc(F)c3F)[C@@H]2COCCN12", "note": "[baloxavir acid]", "values": [{"measurement": "Body weight loss induced by infection", "setting": "[2]; in vivo", "result": "suppressed body weight loss"}, {"measurement": "Mortality", "setting": "[2]; in vivo", "result": "complete elimination of mortality"}, {"measurement": "Mortality due to infection", "setting": "[2]; in vivo", "result": "completely eliminated mortality"}, {"measurement": "Survival", "setting": "[2]; in vivo", "result": "all mice survived"}, {"measurement": "Survival Rate", "setting": "[2]; in vivo", "result": "100 ** %"}, {"measurement": "Virus titres in the lungs compared to the oseltamivir phosphate group", "setting": "[2]; in vivo", "result": "significantly lower"}, {"measurement": "Virus titres in the lungs compared to the vehicle-treated group", "setting": "[2]; in vivo", "result": "significantly low"}, {"measurement": "Body weight loss induced by infection", "setting": "[3]; in vivo", "result": "suppressed body weight loss"}, {"measurement": "Mortality due to infection", "setting": "[3]; in vivo", "result": "completely eliminated mortality"}, {"measurement": "Survival", "setting": "[3]; in vivo", "result": "all mice survived"}, {"measurement": "Survival Rate", "setting": "[3]; in vivo", "result": "50 * % and 100 ** % and 80 * % and 50%"}, {"measurement": "Survival rate", "setting": "[3]; in vivo", "result": "≤ 50", "unit": "%"}, {"measurement": "Survival vs vehicle", "setting": "[3]; in vivo", "result": "significantly improved survival"}, {"measurement": "Virus titres in the lungs compared to the oseltamivir phosphate group", "setting": "[3]; in vivo", "result": "significantly lower"}, {"measurement": "Virus titres in the lungs compared to the vehicle-treated group", "setting": "[3]; in vivo, sc, 10 mg/kg", "result": "significantly low"}, {"measurement": "EC50", "setting": "[1]", "result": "1.69 ± 0.57", "unit": "nM"}, {"measurement": "EC90", "setting": "[4]", "result": 0.79, "unit": "nM"}, {"measurement": "EC90", "setting": "[5]", "result": 2.2, "unit": "nM"}, {"measurement": "EC90", "setting": "[6]", "result": "0.46 to 0.98", "unit": "nM"}, {"measurement": "EC90", "setting": "[7]", "result": "2.2 to 6.5", "unit": "nM"}, {"measurement": "mean EC50 against seasonal influenza A viruses relative to influenza B viruses", "setting": "[8]", "result": "five to ten times lower"}, {"measurement": "half-life", "setting": "[9]; female, BALB/c, 3.2 mg/kg", "result": 74.2, "unit": "h"}, {"measurement": "half-life", "setting": "[9]; female, BALB/c, 6.4 mg/kg", "result": 84.2, "unit": "h"}, {"measurement": "half-life", "setting": "[9]; 10 mg/kg", "result": 49.9, "unit": "h"}, {"measurement": "Plasma concentration", "setting": "[10]; 10 mg/kg s.c. single dose, 2 h after dosing", "result": 44.0, "unit": "ng/mL"}, {"measurement": "Plasma concentration", "setting": "[10]; 10 mg/kg s.c. single dose, 4 h after dosing", "result": 47.2, "unit": "ng/mL"}, {"measurement": "Plasma concentration", "setting": "[10]; 10 mg/kg s.c. single dose, 8 h after dosing", "result": 34.4, "unit": "ng/mL"}, {"measurement": "Plasma concentration", "setting": "[10]; 10 mg/kg s.c. single dose, 48 h after dosing", "result": 17.8, "unit": "ng/mL"}, {"measurement": "Plasma concentration", "setting": "[10]; 10 mg/kg s.c. single dose, 120 h after dosing", "result": 6.79, "unit": "ng/mL"}, {"measurement": "Plasma concentration", "setting": "[10]; 10 mg/kg s.c. single dose, 168 h after dosing", "result": 6.51, "unit": "ng/mL"}, {"measurement": "Plasma concentration", "setting": "[10]; 10 mg/kg s.c. single dose, 216 h after dosing", "result": 5.97, "unit": "ng/mL"}, {"measurement": "Plasma concentration", "setting": "[10]; mouse, in vivo", "result": 26.1, "unit": "ng/mL"}, {"measurement": "Half-life of baloxavir acid in humans", "setting": "[11]", "result": "49 to 91", "unit": "h"}, {"measurement": "Half-life of baloxavir acid in plasma", "setting": "[12]", "result": "2.2 to 3.1", "unit": "h"}]}
{"smiles": "CCOC(=O)C1=C[C@@H](OC(CC)CC)[C@H](NC(C)=O)[C@@H](N)C1", "note": "[oseltamivir phosphate]", "values": [{"measurement": "Body weight loss induced by infection", "setting": "[2]; in vivo", "result": "suppressed body weight loss"}, {"measurement": "Virus titres in the lungs compared to the vehicle-treated group", "setting": "[2]; in vivo", "result": "significantly low"}, {"measurement": "Mice survived", "setting": "[2]; n = 10", "result": 100, "unit": "%"}, {"measurement": "Body weight loss induced by infection", "setting": "[3]; in vivo", "result": "suppressed body weight loss"}, {"measurement": "Mice survived", "setting": "[3]; n = 10", "result": 70, "unit": "%"}]}
